A short description of the data set: solvent given as SMILES.

On to `COc1cnc(-c2cc[n+](C3=C(F)C(F)(F)C(F)(F)[C-]3F)cc2)s1`, for which the absorption maximum (in CC#N) is 407 nm; the absorption maximum (in CC(C)=O) was 408 nm; the absorption maximum (in CCO) is reported as 409 nm; the absorption maximum (in CN(C)C=O) is given as 410 nm; the absorption maximum (in CO) is recorded as 407 nm; the absorption maximum (in CS(C)=O) is 410 nm. Besides, the absorption maximum (in ClC(Cl)Cl) is 433 nm and the absorption maximum (in ClCCl) amounted to 430 nm.
Under “in CCO”, `CN1C(=Cc2c([O-])c(=O)/c2=N\C#N)C(C)(C)c2ccccc21` registered an absorption maximum of 436 nm.
`N#C/C(=C\c1ccc(C=C(c2ccccc2)c2ccccc2)cc1)c1ccccc1` returned an absorption maximum (in C1CCOC1) of 366 nm.
`Cc1ccc2nc(-c3cccc4nc(C)[nH]c(=O)c34)[nH]c2c1`: the absorption maximum (in CN(C)C=O) was found to be 322 nm.
In turn, `Fc1ccc(-c2c3ccccc3nc3cc4ccccc4cc23)cc1` registered an absorption maximum (in ClCCl) of 400 nm.
For the molecule `Cc1ccc2cc3c(=O)n(C)c(=O)n(C)c3nc2c1`, the absorption maximum runs as follows: (in CC#N) 353 nm; (in CC(C)O) 353 nm; (in CCO) 353 nm; (in CO) 352 nm; (in ClC(Cl)Cl) 355 nm; (in ClCCl) 355 nm.
On to `COc1ccc2c(c1)C(=O)c1ccccc1-2`, for which the absorption maximum worked out at 421 nm (in C1CCCCC1), 432 nm (in CC#N) and 433 nm (in CCO).
For the molecule `Cc1cccc(-c2[nH]c(=O)n3c2-c2ccccc2C3=O)c1O`, the absorption maximum is, setting by setting: (in CC#N) 391 nm; (in CO) 395 nm; (in ClCCl) 392 nm.
`CC[N+]1(CC)CN2C(=N1)C(C(=O)O)=Cc1cc(C)ccc12` yielded an absorption maximum (in O) of 379 nm.
Take `c1ccc(-c2nc3c(ccc4[nH]ccc43)o2)cc1`: the absorption maximum came out at 331 nm (in C1CCCCC1); 333 nm (in C1COCCO1); 320 nm (in CC#N); 325 nm (in CO); 322 nm (in Cc1ccccc1); 321 nm (in O).
On to `COc1ccccc1-c1c(-c2ccccc2O)nc(-c2ccc(C(F)(F)F)cc2)n1-c1ccc(C)cc1`, for which the absorption maximum (in C1CCOC1) is recorded as 313 nm; the absorption maximum (in CC(C)O) is 311 nm; the absorption maximum (in CO) was found to be 309 nm; the absorption maximum (in CS(C)=O) was 315 nm; the absorption maximum (in ClC(Cl)Cl) stood at 314 nm; the absorption maximum (in ClCCl) worked out at 313 nm.
For the molecule `COc1ccc2cc(C3=[N+]4C(=Nc5c(-c6ccccc6)cc(-c6ccc7cc(OC)ccc7c6)n5[B-]4(F)F)C(c4ccccc4)=C3)ccc2c1`, the absorption maximum turned out to be 706 nm (in ClC(Cl)Cl) and 706 nm (in ClCCl).
Regarding `O=C(N/N=C/c1ccccc1O)c1ccc([N+](=O)[O-])cc1`, the absorption maximum runs as follows: (in C1CCOC1) 338 nm; (in CC#N) 339 nm; (in CC(C)=O) 350 nm; (in CCO) 345 nm; (in CN(C)C=O) 380 nm; (in CS(C)=O) 342 nm. Also, the absorption maximum (in ClCCl) is given as 340 nm.
`c1ccc(-c2nc3ccccc3nc2-c2ccc(-n3c4ccccc4c4ccccc43)cc2)cc1`: the absorption maximum (in Cc1ccccc1) is 345 nm.
For the molecule `CCn1c2ccsc2c2c3nsnc3c3c4sccc4n(CC)c3c21`, the absorption maximum is, setting by setting: (in C1CCOC1) 436 nm; (in CCOC(C)=O) 433 nm; (in CN(C)C=O) 441 nm; (in Cc1ccccc1) 432 nm; (in ClCCl) 436 nm.
Where the note is “in CCOC(C)=O”, `O=Cc1cc2c(cc3ccc4cccc5ccc2c3c45)[nH]1` displayed an absorption maximum of 416 nm.
Turning to `CC(C)=CCN1C(=O)c2cccc3c2c(cc2nc(C)oc23)C1=O`, the absorption maximum (in CCO) is reported as 362 nm.
`O=S(=O)([O-])c1cccc2c(O)cccc12`: where the note is “in O”, the absorption maximum is given as 304 nm.
With `CCC1=C(C)C2=Cc3cscc3B(O)N2C1=O`, the absorption maximum reads like this: (in CC#N) 350 nm; (in CCCCCC) 351 nm; (in CO) 355 nm; (in CS(C)=O) 352 nm; (in ClC(Cl)Cl) 355 nm.
As to `CCCCN(CCCC)c1ccc(C#Cc2cc(C#Cc3ccc(N(CCCC)CCCC)cc3)c(C#Cc3cc(C(F)(F)F)cc(C(F)(F)F)c3)cc2C#Cc2cc(C(F)(F)F)cc(C(F)(F)F)c2)cc1`, the absorption maximum (in ClCCl) came to 433 nm.
As for `CCN(CC)c1ccc2cc(-c3nc4c5ccccc5c5ccccc5c4n3-c3ccc(C(C)(C)C)cc3)c(=O)oc2c1`, the absorption maximum (in ClCCl) is 410 nm.
Turning to `Cc1ccc(-c2cc(/C=C/c3ccc(N(c4ccccc4)c4ccccc4)cc3)c(-c3ccc(C)cc3)cc2/C=C/c2ccc(N(c3ccccc3)c3ccccc3)cc2)cc1`, the absorption maximum (in ClCCl) was 410 nm.
In turn, `Cc1ccc(N(c2ccccc2)c2ccc3ccc4c(N(c5ccccc5)c5ccc(C)cc5)ccc5ccc2c3c54)cc1` gave an absorption maximum (in ClCCl) of 428 nm.
In turn, `COc1cccc(-c2nc3sc4ccccc4c3s2)c1` registered an absorption maximum (in CS(C)=O) of 350 nm.
`O=P1(c2ccccc2)C(c2ccc(N(c3ccccc3)c3ccccc3)cc2)=Cc2cc3ccccc3cc21` (stereo not drawn): the absorption maximum is 407 nm (in C1CCOC1); 404 nm (in CC#N); 407 nm (in CN(C)C=O); 412 nm (in Cc1ccccc1); 417 nm (in ClC(Cl)Cl); 414 nm (in ClCCl).
Consider `CCCCCCCc1ccc(C2=[N+]3C(=C4c5cc(OCC(CC)CC)c(-c6ccc(CCCCCCC)o6)n5[B-](F)(F)[n+]5nnn(c54)[B-]3(F)F)C=C2OCC(CC)CC)o1`, for which the absorption maximum is, setting by setting: (in C1CCOC1) 811 nm; (in ClCCl) 826 nm.
The molecule `CCCCCCc1ccc(-n2c3c4cccc(OC)c4nc(-c4ccc(C)cc4)c3c3c2c2c(-c4ccc(C)cc4)nc4c(OC)cccc4c2n3-c2ccc(CCCCCC)cc2)cc1` registered an absorption maximum (in ClC(Cl)Cl) of 315 nm.
As to `c1ccc(-c2ccc(-c3nc(-n4c5ccccc5c5ccc6c7ccccc7n(-c7ccccc7)c6c54)nc(-n4c5ccccc5c5ccc6c7ccccc7n(-c7ccccc7)c6c54)n3)cc2)cc1`, the absorption maximum (in Cc1ccccc1) was 403 nm.
Turning to `O=[N+]([O-])c1ccc(C#Cc2ccccc2C#Cc2ccc([N+](=O)[O-])cc2)cc1`, where the note is “in CC#N”, the absorption maximum was 350 nm.
Regarding `COC(=O)C(NC(=O)OC(C)(C)C)c1ccc2oc(-c3ccc(F)cc3)nc2c1` (stereo not drawn), the absorption maximum (in CC1CCCCC1) worked out at 317 nm, the absorption maximum (in CC#N) came out at 314 nm and the absorption maximum (in CO) was 302 nm.
For `Cc1ccc2ccc3cccc4ccc1c2c34`, the absorption maximum reads like this: (in CCCCCC) 338 nm; (in CO) 338 nm; (in ClCCl) 341 nm.
Where the note is “in C1COCCO1”, `COC(=O)c1ccc(/C=C2\N=C(c3ccc(OC)c(OC)c3)NC2=O)cc1` came in with an absorption maximum of 403 nm.
Regarding `N#Cc1c(-n2nnc3c2CCC2C(CC3)[C@@H]2CO)n([C@H]2C[C@H](O)[C@@H](CO)O2)c2ncnc(N)c12` (stereo partly drawn), the absorption maximum (in CO) came to 287 nm.
Under “in ClCCl”, `O=c1c2ccccc2c2nc3cc4c(C#C[Si](C5CCCCC5)(C5CCCCC5)C5CCCCC5)c5cc6nc7c8ccccc8c(=O)c8ccccc8c7nc6cc5c(C#C[Si](C5CCCCC5)(C5CCCCC5)C5CCCCC5)c4cc3nc2c2ccccc12` displayed an absorption maximum of 731 nm.
Molecule `Cc1cc(C)c(-c2nnc(-c3ccc(-n4c5ccccc5c5ccccc54)cc3)o2)c(C)c1` gave an absorption maximum (in Cc1ccccc1) of 340 nm.
Turning to `OC1(c2ccc(-c3cccs3)s2)CCC(c2ccccc2)CC1` (stereo not drawn), the absorption maximum was determined as 313 nm (in C1CCOC1); 309 nm (in CC#N); 307 nm (in CCCCCC); 309 nm (in CCO); 311 nm (in OCCOCCO); 314 nm (in c1ccncc1).
Take `c1ccc(-n2c3ccccc3c3cc(-c4ccn5nc(-c6ccc(-n7c8ccccc8c8ccccc87)cc6)nc5c4)ccc32)cc1`: under “in C1CCOC1”, the absorption maximum stood at 341 nm.
For the setting “in O”, `CN(C)c1ccc2[c](c1)[Sn]([CH3])([CH3])[C]1=CC(=[N+](C)C)C=CC1=C2` displayed an absorption maximum of 614 nm.
As to `Nc1ccc(/C=C/c2cccnc2)cc1`, the absorption maximum reads like this: (in CC#N) 342 nm; (in CCCCCC) 336 nm.
For `Fc1ccc(-c2cccc3ncc(-c4ccccc4)n23)cc1`, the absorption maximum (in ClCCl) is given as 336 nm.
`Cc1cc(C)c(B(c2ccc(-c3ccc(-c4nc5c6ccccc6c6ccccc6c5[nH]4)cc3)cc2)c2c(C)cc(C)cc2C)c(C)c1`: the absorption maximum (in C1CCOC1) is 375 nm; the absorption maximum (in CC(C)=O) was 373 nm; the absorption maximum (in CS(C)=O) came to 378 nm; the absorption maximum (in Cc1ccccc1) worked out at 374 nm; the absorption maximum (in ClCCl) turned out to be 371 nm.
Take `C(=C1c2ccccc2CCc2ccccc21)c1ccc(C=C2c3ccccc3CCc3ccccc32)cc1`: the absorption maximum (in C1CCOC1) came out at 330 nm.
In turn, `Cc1c(C)n2c(COC(=O)c3ccccc3I)c(C)c(=O)n2c1=O` showed an absorption maximum (in CCO) of 377 nm.
`CN(c1ccccc1)c1ccc(/C=C2\C(=O)c3ccccc3S2(=O)=O)cc1` gave an absorption maximum (in C1CCOC1) of 468 nm; an absorption maximum (in C1COCCO1) of 466 nm; an absorption maximum (in CC#N) of 471 nm; an absorption maximum (in CC(C)=O) of 470 nm; an absorption maximum (in CCOC(C)=O) of 465 nm; an absorption maximum (in CN(C)C=O) of 478 nm. Further, the absorption maximum by setting is: (in CO) 475 nm; (in CS(C)=O) 483 nm; (in Cc1ccccc1) 472 nm; (in ClC(Cl)Cl) 479 nm; (in ClCCl) 476 nm.
`CCCCCCCCCCCCN1C(=O)c2c(c3ccc4cc(-c5ccc(Cl)cc5)c(OC)cc4c3c3c2ccc2cc(-c4ccc(Cl)cc4)c(OC)cc23)C1=O`: the absorption maximum (in ClCCl) was found to be 430 nm.
`O=C(O)c1ccc(C2=C(/C=C/c3[se]c4ccccc4[n+]3CCCCS(=O)(=O)[O-])CCC/C2=C\C=C2/[Se]c3ccccc3N2CCCCS(=O)(=O)[O-])cc1` returned an absorption maximum (in CO) of 800 nm.
Molecule `COCCC1=Cc2nc1ccc1[nH]c(cc1CCOC)c1nc(c(NC(=O)CCCC(=O)O)cc3[nH]c2cc3CCOC)C(CCOC)=C1` showed an absorption maximum (in Cc1ccccc1) of 645 nm.

The values are drawn from the Deep4Chem optical property database.
